What was measured:
hSERT, hNET, hDAT = assay: Human transporter binding: rank order and range of potency over the three transporters; conditions: for Potency (rank-order of potency of binding; S = hSERT, N = hNET, D = hDAT): from KD values
Text: The program was modified to calculate the Hill coefficient (nH). Data are presented as geometric mean±S.E.M. of at least three independent experiments. One-component models and two-component models were compared using the root mean square error of each fit and the F test.

CYP2D6 = molecular target: T1, CYP2D6 (Homo sapiens, UniProt P10635); assay: CYP2D6 inhibition, CYP2D6/AMMC kit (BD Biosciences), fluorescent substrate; format: in vitro ADME
T1 construct: purchased BD Biosciences 459200
T1 sequence (P10635 whole entry): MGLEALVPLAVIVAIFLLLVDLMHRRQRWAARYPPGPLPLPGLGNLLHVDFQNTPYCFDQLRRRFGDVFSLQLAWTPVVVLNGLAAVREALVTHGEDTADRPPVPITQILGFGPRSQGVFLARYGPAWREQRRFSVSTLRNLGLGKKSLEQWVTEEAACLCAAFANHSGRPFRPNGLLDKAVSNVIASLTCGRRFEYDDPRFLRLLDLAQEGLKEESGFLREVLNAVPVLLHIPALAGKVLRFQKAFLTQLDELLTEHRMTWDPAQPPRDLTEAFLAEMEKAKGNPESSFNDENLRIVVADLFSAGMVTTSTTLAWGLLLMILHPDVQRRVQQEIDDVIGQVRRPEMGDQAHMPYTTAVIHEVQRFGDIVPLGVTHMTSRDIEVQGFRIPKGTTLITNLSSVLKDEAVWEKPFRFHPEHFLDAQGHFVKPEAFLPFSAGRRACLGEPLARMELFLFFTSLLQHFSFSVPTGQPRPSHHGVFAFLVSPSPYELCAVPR
Text: This kit includes the use of a fluorescent P450 substrate (AMMC or 3-[2-(N,N-diethyl-N-methylamino)ethyl]-7-methoxy-4-methylcoumarin) and recombinant human P450.

hERG = hERG (Homo sapiens, UniProt Q12809); assay: hERG assay: block of rubidium ion (Rb+) efflux from cells expressing hERG
Chain of hERG (Q12809 whole entry): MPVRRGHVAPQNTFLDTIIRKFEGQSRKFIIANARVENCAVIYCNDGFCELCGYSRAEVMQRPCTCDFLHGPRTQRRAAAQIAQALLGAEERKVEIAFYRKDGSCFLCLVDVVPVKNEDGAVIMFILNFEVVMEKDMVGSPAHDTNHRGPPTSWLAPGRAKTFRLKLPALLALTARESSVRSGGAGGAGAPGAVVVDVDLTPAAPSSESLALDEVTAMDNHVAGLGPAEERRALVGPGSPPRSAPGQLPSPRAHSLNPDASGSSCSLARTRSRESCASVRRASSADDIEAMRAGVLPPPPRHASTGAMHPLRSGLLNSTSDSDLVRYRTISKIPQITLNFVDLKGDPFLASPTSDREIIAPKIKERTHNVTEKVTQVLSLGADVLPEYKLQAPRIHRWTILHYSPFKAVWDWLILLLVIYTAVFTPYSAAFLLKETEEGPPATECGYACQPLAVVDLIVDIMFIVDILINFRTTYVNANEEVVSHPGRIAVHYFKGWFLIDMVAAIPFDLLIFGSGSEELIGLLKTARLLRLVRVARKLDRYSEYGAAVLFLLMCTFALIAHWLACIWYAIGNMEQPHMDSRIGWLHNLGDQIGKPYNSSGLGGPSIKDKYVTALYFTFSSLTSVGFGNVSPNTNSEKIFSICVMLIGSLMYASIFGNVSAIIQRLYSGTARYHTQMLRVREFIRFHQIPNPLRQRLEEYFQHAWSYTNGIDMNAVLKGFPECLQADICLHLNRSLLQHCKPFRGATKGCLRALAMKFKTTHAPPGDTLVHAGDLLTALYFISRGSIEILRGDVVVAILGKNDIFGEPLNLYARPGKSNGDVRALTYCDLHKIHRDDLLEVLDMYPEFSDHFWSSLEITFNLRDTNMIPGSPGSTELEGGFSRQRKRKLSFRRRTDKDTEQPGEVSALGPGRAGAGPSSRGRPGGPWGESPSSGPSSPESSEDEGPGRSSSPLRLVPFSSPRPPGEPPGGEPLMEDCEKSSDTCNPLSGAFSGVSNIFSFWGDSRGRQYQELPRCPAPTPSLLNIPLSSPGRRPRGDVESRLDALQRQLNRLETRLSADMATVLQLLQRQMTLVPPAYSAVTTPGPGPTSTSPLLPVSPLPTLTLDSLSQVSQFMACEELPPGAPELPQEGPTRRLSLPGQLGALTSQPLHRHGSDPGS
Procedure: Human “ether-a-go-go” (hERG) is an ion channel. Blockade of this channel can be predictive of causing cardiac arrhythmias in humans. hERG assays were performed to measure the ability of a compound to block rubidium ion (Rb^+) efflux from cells expressing hERG. Cells were pre-loaded with Rb^+, incubated with test compound, and then exposed to a buffer that opens the channel and allows the efflux of ions. Compounds as powder were dissolved in 100% DMSO to prepare 100 mM stock solutions. […] The stocks were stored at 23° C.
The range of doses for the test compounds was 30 nM through 100,000 nM.

[1] = molecular target: T2, rat serotonin transporter, synaptosomal preparations (Rattus norvegicus, UniProt P31652); assay: Inhibition of [3H]5-HT reuptake in rat brain synaptosomes (frontal cortex); format: biochemical
T2 construct: from tissue; host or cells: rat frontal cortex synaptosomes (male Sprague-Dawley)
T2 sequence (P31652 whole entry): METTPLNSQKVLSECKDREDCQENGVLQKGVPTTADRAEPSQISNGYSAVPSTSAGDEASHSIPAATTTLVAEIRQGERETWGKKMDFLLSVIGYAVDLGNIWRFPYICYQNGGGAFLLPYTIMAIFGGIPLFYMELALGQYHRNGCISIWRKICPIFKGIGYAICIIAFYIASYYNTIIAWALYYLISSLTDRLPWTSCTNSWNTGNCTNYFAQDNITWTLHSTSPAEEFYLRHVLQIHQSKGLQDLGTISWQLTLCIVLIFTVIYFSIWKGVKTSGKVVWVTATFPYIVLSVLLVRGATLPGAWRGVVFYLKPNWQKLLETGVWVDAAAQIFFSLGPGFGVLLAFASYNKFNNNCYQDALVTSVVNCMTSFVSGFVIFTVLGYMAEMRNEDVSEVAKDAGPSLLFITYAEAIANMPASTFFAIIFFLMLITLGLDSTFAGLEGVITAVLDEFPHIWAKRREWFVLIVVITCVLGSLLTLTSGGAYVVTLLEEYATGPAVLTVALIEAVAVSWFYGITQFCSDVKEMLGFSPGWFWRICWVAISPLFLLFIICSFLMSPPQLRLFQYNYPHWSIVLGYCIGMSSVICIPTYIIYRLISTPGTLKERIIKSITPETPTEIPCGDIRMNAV
Procedure: (§1) The dissected tissues were separately homogenized in 20 volumes (cortical) or 40 volumes (striatal) of ice-cold, oxygenated HEPES buffer 0.32 M sucrose containing 11 mM glucose (pH 7.4) in a glass Potter-Elvehjem homogenizer with Teflon® pestle (8 strokes, 900 rpm). The homogenates were centrifuged at 1,000×g for 10 minutes. The resulting supernatant was decanted and further centrifuged at 20,000×g for 20 minutes at 4° C. […] The synaptosomal protein concentration was determined by using the BCA assay (Pierce Biotechnology Inc, Rockford, Ill.), according to the manufacturer's instructions. Synaptosomal protein (1.0-2.5 mg) was suspended in 1 mL oxygenated incubation buffer as defined above. Test amine compound was pre-incubated with the synaptosomal preparation for 30 minutes at 37° C. in a shaking water bath (80 oscillations/minute).

[2] = molecular target: T3, rat norepinephrine transport, synaptosomal preparations (Rattus norvegicus, UniProt Q63380); assay: Inhibition of [3H]NE reuptake in rat brain synaptosomes (occipital cortex); format: biochemical
T3 construct: from tissue; host or cells: rat occipital cortex synaptosomes (male Sprague-Dawley)
T3 sequence (Q63380 1-617): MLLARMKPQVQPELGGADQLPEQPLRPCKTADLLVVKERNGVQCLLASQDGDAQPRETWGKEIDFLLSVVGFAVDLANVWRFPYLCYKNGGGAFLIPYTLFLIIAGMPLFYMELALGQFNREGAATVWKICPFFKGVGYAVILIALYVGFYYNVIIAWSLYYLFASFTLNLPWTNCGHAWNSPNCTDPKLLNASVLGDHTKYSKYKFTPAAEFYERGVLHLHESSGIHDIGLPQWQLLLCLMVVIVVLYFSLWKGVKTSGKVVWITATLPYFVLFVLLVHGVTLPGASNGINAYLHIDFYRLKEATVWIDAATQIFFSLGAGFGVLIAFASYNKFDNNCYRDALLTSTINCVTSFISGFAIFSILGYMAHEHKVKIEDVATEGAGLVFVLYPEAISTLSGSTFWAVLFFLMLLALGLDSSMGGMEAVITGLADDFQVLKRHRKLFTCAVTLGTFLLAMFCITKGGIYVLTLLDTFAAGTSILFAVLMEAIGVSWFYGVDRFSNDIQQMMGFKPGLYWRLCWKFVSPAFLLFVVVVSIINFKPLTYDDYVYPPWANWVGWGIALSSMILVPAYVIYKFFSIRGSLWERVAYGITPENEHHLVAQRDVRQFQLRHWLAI
Procedure: as §1

[3] = molecular target: T4, rat dopamine transporter, synaptosomal preparations (Rattus norvegicus, UniProt P23977); assay: Inhibition of [3H]DA reuptake in rat brain synaptosomes (striatum); format: biochemical
T4 construct: and striatal tissues for transport of dopamine; from tissue; host or cells: rat striatum synaptosomes (male Sprague-Dawley)
T4 sequence (P23977 whole entry): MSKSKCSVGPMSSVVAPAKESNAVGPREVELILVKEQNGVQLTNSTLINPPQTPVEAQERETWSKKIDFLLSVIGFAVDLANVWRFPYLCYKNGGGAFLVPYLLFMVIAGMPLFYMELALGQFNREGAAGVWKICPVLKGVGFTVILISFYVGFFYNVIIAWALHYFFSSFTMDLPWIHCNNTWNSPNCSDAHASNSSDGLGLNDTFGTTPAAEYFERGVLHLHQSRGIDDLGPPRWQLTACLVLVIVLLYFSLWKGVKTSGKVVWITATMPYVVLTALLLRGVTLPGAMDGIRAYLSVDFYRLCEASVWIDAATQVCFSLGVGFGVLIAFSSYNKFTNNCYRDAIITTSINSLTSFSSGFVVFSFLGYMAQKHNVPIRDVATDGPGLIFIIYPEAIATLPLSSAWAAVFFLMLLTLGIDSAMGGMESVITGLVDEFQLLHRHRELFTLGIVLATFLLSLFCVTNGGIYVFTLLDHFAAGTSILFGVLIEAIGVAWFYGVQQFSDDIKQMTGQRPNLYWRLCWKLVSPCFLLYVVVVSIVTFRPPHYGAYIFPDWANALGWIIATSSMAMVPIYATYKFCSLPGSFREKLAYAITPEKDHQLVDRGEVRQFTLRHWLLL
Procedure: as §1

[4] = system: rat 5-HT, NE and DA transport, synaptosomal preparations; assay: Rat brain synaptosomal transport: rank order of potency; format: biochemical; conditions: from Ki values; S = 5HT, N = NE, D = DA
Procedure: as §1

Male Sprague-Dawley rats = assay: Forced swim test in rats; format: in vivo, rat; conditions: 5 mg/kg IP
Procedure: When rats are placed in a cylinder of water from which they cannot escape, they will remain immobile in the water for the majority of the test.
Water was changed between trials, and the procedure involved a pretest and a 5-minute test separated by 24 hours. During the pretest, rats (adapted to the experimental room for no less than one hour) were placed in the cylinder for 15 minutes. Following this initial exposure, the rats were dried with towels and transferred to a “drying cage” situated under a warming lamp. […] The following day, rats were transferred to the experimental room and acclimated for at least one hour.
The rat was considered immobile when floating motionless or making only those movements necessary to keep its head above the surface of the water. Scores for each behavior (swimming or immobility) were expressed as total counts per 5-minute session. Statistical analysis was performed using ANOVA followed by the Tukey test for post-hoc comparisons.

[5] = molecular target: human norepinephrine transporter (Homo sapiens, UniProt P23975); assay: Inhibition of [3H]NE transport into HEK-293 cells expressing the human transporter
Chain of human norepinephrine transporter (P23975 whole entry): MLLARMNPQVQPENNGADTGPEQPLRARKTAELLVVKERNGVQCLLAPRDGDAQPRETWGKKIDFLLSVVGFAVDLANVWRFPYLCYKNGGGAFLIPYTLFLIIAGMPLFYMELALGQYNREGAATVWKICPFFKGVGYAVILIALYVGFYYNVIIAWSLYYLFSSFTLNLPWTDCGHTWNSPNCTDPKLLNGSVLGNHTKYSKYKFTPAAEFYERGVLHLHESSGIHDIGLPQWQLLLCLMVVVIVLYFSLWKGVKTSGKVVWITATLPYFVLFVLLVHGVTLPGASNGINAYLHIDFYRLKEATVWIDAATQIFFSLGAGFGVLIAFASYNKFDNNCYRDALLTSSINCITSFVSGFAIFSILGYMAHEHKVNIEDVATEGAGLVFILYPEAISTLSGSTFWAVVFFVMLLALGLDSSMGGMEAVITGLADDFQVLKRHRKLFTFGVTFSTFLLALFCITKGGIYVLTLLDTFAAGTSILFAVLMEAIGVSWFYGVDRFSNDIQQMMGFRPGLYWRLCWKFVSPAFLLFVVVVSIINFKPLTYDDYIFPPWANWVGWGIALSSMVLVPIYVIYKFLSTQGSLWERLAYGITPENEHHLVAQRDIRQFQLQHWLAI

[6] = molecular target: human serotonin transporter (Homo sapiens, UniProt P31645); assay: Inhibition of [3H]5-HT transport into HEK-293 cells expressing the human transporter
Chain of human serotonin transporter (P31645 whole entry): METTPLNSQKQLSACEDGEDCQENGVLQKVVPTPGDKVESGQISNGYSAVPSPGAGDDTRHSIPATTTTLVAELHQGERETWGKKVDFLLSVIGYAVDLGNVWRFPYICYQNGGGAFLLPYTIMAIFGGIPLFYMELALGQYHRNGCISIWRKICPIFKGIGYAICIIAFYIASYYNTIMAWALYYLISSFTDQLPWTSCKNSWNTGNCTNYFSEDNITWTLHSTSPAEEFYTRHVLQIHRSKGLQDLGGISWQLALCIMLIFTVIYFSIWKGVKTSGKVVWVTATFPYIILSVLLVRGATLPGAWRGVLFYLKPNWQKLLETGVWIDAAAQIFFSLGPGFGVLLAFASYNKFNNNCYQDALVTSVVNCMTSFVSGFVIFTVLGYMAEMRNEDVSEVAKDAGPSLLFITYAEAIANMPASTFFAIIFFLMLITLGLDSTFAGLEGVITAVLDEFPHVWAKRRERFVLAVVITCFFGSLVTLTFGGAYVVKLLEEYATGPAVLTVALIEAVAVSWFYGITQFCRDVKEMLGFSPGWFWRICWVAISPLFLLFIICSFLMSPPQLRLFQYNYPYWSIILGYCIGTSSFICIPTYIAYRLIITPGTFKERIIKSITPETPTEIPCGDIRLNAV

mice = assay: Locomotor activity in motility chamber, mice; format: in vivo, mouse; conditions: 5 mg/kg IP, 10 minute intervals for 3 hours, FIG. 11

## CNC[C@H](c1ccc2ccccc2c1)[C@H](O)c1ccccc1 [PRC200-SS, (1S,2S)-3-(methylamino)-2-(naphthalen-2-yl)-1-phenylpropan-1-ol, reference compound]
hSERT, hNET, hDAT
  Potency (rank-order of potency of binding; S = hSERT, N = hNET, D = hDAT): N > S > D
hSERT, hNET, hDAT; listed as PRC200
  Potency (rank-order of potency of binding; S = hSERT, N = hNET, D = hDAT): N>S>D
hSERT, hNET, hDAT; ratio of KD over hSERT, hNET, hDAT
  Potency Range (difference between most potent and least potent binding): 45 fold
CYP2D6
  IC50: 80 nM
hERG
  IC50: 32.6 µM
[1]
  Ki: 2.12 ± 0.9 nM
[2]
  Ki: 6 ± 2 nM
[3]
  Ki: 61 ± 4 nM
[4]
  Potency (rank order, transport into rat brain synaptosomal preparations): S > N > D
Male Sprague-Dawley rats
  Immobility in forced swim test vs saline: statistically (P<0.04) less immobility
  Swimming in forced swim test vs saline: statistically (P<0.04) more swimming behavior
Male Sprague-Dawley rats; FIG. 12A
  Antidepressant activity in forced swim test compared with imipramine (15 mg/kg IP): antidepressant activity that was similar to that observed in rats treated with the positive control
[5]
  Ki: 6 ± 2 nM
[6]
  Ki: 2.8 ± 0.4 nM

## C[C@H](N)Cc1ccccc1 [d-amphetamine, reference compound]
mice
  Effect on locomotor activity: caused a significant effect on locomotor activity

From US8440724B2, “Inhibiting neurotransmitter reuptake” (Mayo Foundation for Medical Education and Research, priority 2008, dated 2013)
